Data from patent US20260285850A1, “SUBSTITUTED OXAZOLIDINONES AND IMIDAZOLINONES AS HERBICIDES” (FMC CORPORATION, priority 2023, published 2026).

Assays:
Format in all cases: in vivo
[1] = tested on: barnyardgrass (Echinochloa crusgalli); assay: Test B flooded paddy test, visual plant response rating 0-100; conditions: 250 g ai/ha, Flood, applied to paddy water, evaluated after 13 days
Outline: (§1)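 2-leaf plants; flood 3 cm over soil; compound dosed into paddy water; depth kept constant; greenhouse 13 d; visual scoring vs controls. Dash = no result.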

[2] = tested on: sedge, umbrella (small-flower umbrella sedge, Cyperus difformis); assay: as above; conditions: 250 g ai/ha, Flood, applied to paddy water, evaluated after 13 days
Outline: as §1

[3] = tested on: ducksalad (Heteranthera limosa); assay: as above; conditions: 250 g ai/ha, Flood, applied to paddy water, evaluated after 13 days
Outline: as §1

rice (Oryza sativa) = assay: as above; conditions: 250 g ai/ha, Flood, applied to paddy water, evaluated after 13 days
Outline: as §1

[4] = tested on: green foxtail (Setaria viridis); assay: Test A preemergence soil spray, visual injury rating 0-100; conditions: 10 days
Outline: (§2)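 Compounds formulated in a non-phytotoxic solvent with surfactant are sprayed onto soil of freshly planted loam-sand pots ahead of emergence, or onto emerged plants 2-10 cm tall. After a 10-day greenhouse period, each species is scored visually for injury against untreated controls.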

soybean (Glycine max) [5] = assay: as above; conditions: 10 days
Outline: as §2

[6] = tested on: ryegrass, Italian (italian ryegrass, Lolium multiflorum); assay: as above; conditions: 10 days
Outline: as §2

[7] = tested on: oat, wild (wild oat, Avena fatua); assay: as above; conditions: 10 days
Outline: as §2

[8] = tested on: blackgrass (Alopecurus myosuroides); assay: as above; conditions: 10 days
Outline: as §2

[9] = tested on: palmer (palmer amaranth, palmer pigweed, Amaranthus palmeri); assay: as above; conditions: 10 days
Outline: as §2

kochia (Bassia scoparia) [10] = assay: as above; conditions: 10 days
Outline: as §2

corn (Zea mays) [11] = assay: as above; conditions: 10 days
Outline: as §2

[12] = tested on: wheat (Triticum aestivum); assay: as above; conditions: 10 days
Outline: as §2

[13] = tested on: barnyardgrass (Echinochloa crus-galli); assay: as above; conditions: 10 days
Outline: as §2

[14] = tested on: ragweed (common ragweed, Ambrosia artemisiifolia); assay: as above; conditions: 10 days
Outline: as §2

[15] = tested on: green foxtail (Setaria viridis); assay: Test A postemergence application, visual injury rating 0-100
Outline: as §2

[16] = tested on: galium (catchweed bedstraw, Galium aparine); assay: as above
Outline: as §2

[17] = tested on: horseweed (Erigeron canadensis); assay: as above
Outline: as §2

soybean (Glycine max) [18] = assay: as above
Outline: as §2

[19] = tested on: ryegrass, Italian (italian ryegrass, Lolium multiflorum); assay: as above
Outline: as §2

[20] = tested on: oat, wild (wild oat, Avena fatua); assay: as above
Outline: as §2

[21] = tested on: blackgrass (Alopecurus myosuroides); assay: as above
Outline: as §2

[22] = tested on: palmer (palmer amaranth, palmer pigweed, Amaranthus palmeri); assay: as above
Outline: as §2

kochia (Bassia scoparia) [23] = assay: as above
Outline: as §2

corn (Zea mays) [24] = assay: as above
Outline: as §2

[25] = tested on: wheat (Triticum aestivum); assay: as above
Outline: as §2

[26] = tested on: barnyardgrass (Echinochloa crus-galli); assay: as above
Outline: as §2

[27] = tested on: ragweed (common ragweed, Ambrosia artemisiifolia); assay: as above
Outline: as §2

[28] = 62 g ai/ha, 0 = no effect, 100 = complete control
[29] = 62 g ai/ha, postemergence, 10 days, 0 = no effect, 100 = complete control
[30] = Postemergence, 16 g ai/ha, greenhouse 10 days, 0 no effect, 100 complete control

CC1(C(=O)NC2C=CC(C(=O)O)C2)CN(c2cc(Cl)c(F)c(Cl)c2)C(=O)O1 (stereo not shown) [Compound 124]
Plant response rating, Barnyardgrass (0 to 100 scale, 0 is no effect and 100 is complete control) [1]: 10 | Plant response rating, Sedge, Umbrella (0 to 100 scale, 0 is no effect and 100 is complete control) [2]: 30 | Plant response rating, Ducksalad (0 to 100 scale, 0 is no effect and 100 is complete control) [3]: 85 | Plant response rating, Rice (0 to 100 scale, 0 is no effect and 100 is complete control) (rice (Oryza sativa)): 15 | Foxtail, Green plant response rating ([4]; 16 g ai/ha, 0 to 100 scale): 0 | Foxtail, Green plant response rating (0-100) [4, 28]: 80 | Soybean plant response rating (soybean (Glycine max) [5]; 16 g ai/ha, 0 to 100 scale): 0 | Soybean plant response rating (0-100) (soybean (Glycine max) [5]; [28]): 0 | Ryegrass, Italian plant response rating ([6]; 16 g ai/ha, 0 to 100 scale): 0 | Ryegrass, Italian plant response rating (0-100) [6, 28]: 70 | Oat, Wild plant response rating ([7]; 16 g ai/ha, 0 to 100 scale): 0 | Oat, Wild plant response rating (0-100) [7, 28]: 30 | Blackgrass plant response rating ([8]; 16 g ai/ha, 0 to 100 scale): 20 | Blackgrass plant response rating (0-100) [8, 28]: 30 | Pigweed, Palmer plant response rating ([9]; 16 g ai/ha, 0 to 100 scale): 0 | Pigweed, Palmer plant response rating (0-100) [9, 28]: 30 | Kochia plant response rating (kochia (Bassia scoparia) [10]; 16 g ai/ha, 0 to 100 scale): 0 | Kochia plant response rating (0-100) (kochia (Bassia scoparia) [10]; [28]): 10 | Corn plant response rating (corn (Zea mays) [11]; 16 g ai/ha, 0 to 100 scale): 0 | Corn plant response rating (0-100) (corn (Zea mays) [11]; [28]): 50 | Wheat plant response rating ([12]; 16 g ai/ha, 0 to 100 scale): 20 | Wheat plant response rating (0-100) [12, 28]: 90 | Barnyardgrass plant response rating ([13]; 16 g ai/ha, 0 to 100 scale): 0 | Barnyardgrass plant response rating (0-100) [13, 28]: 40 | Ragweed plant response rating ([14]; 16 g ai/ha, 0 to 100 scale): 0 | Ragweed plant response rating (0-100) [14, 28]: 0 | Foxtail, Green plant response rating (0-100) [15, 29]: 80 | Foxtail, Green plant response rating (0 to 100 scale) [15, 30]: 10 | Galium plant response rating (0-100) [16, 29]: 90 | Galium plant response rating (0 to 100 scale) [16, 30]: 70 | Horseweed plant response rating (0-100) [17, 29]: 60 | Horseweed plant response rating (0 to 100 scale) [17, 30]: 0 | Soybean plant response rating (0-100) (soybean (Glycine max) [18]; [29]): 70 | Soybean plant response rating (0 to 100 scale) (soybean (Glycine max) [18]; [30]): 40 | Ryegrass, Italian plant response rating (0-100) [19, 29]: 90 | Ryegrass, Italian plant response rating (0 to 100 scale) [19, 30]: 30 | Oat, Wild plant response rating (0-100) [20, 29]: 90 | Oat, Wild plant response rating (0 to 100 scale) [20, 30]: 30 | Blackgrass plant response rating (0-100) [21, 29]: 90 | Blackgrass plant response rating (0 to 100 scale) [21, 30]: 80 | Pigweed, Palmer plant response rating (0-100) [22, 29]: 70 | Pigweed, Palmer plant response rating (0 to 100 scale) [22, 30]: 50 | Kochia plant response rating (0-100) (kochia (Bassia scoparia) [23]; [29]): 90 | Kochia plant response rating (0 to 100 scale) (kochia (Bassia scoparia) [23]; [30]): 30 | Corn plant response rating (0-100) (corn (Zea mays) [24]; [29]): 100 | Corn plant response rating (0 to 100 scale) (corn (Zea mays) [24]; [30]): 60 | Wheat plant response rating (0-100) [25, 29]: 90 | Wheat plant response rating (0 to 100 scale) [25, 30]: 80 | Barnyardgrass plant response rating (0-100) [26, 29]: 90 | Barnyardgrass plant response rating (0 to 100 scale) [26, 30]: 70 | Ragweed plant response rating (0-100) [27, 29]: 20 | Ragweed plant response rating (0 to 100 scale) [27, 30]: 0
